Measurements taken from PubChem BioAssay (NCI).
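Test compounds were applied to cells in 96-well plates for 48 hours at 5 doses. GI50 marks 50% less growth. TGI: concentration producing complete growth inhibition.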

Columns and labels:
Assay in all cases: inhibition of tumour cell growth, NCI panel, 48 h
[1] = test system: SK-MEL-28 melanoma
[2] = test system: RXF 393 renal
[3] = test system: RPMI-8226 leukemia
[4] = test system: CCRF-CEM leukemia
[5] = test system: UACC-62 melanoma
[6] = test system: T-47D breast
[7] = test system: SN12C renal
[8] = test system: NCI-H522 lung
[9] = test system: MOLT-4 leukemia
[10] = test system: HL-60(TB) leukemia

Row | Compound | TGI [1] | TGI [2] | TGI [3] | TGI [4] | TGI [5] | TGI [6] | TGI [7] | TGI [8] | GI50 [9] | TGI [9] | TGI [10]
1 | CN1C/C(=C\c2ccc(Cl)cc2)C(=O)/C(=C/c2ccc(Cl)cc2)C1 | > 100 µM | 1.22 µM | 0.895 µM | 1.37 µM | 8.35 µM | > 100 µM | > 100 µM | – | – | – | –
2 | CCOC(=O)c1c2c(n(-c3ccc(OC)cc3)c1C)C(=O)C(=O)c1ccccc1-2 | 3.89 µM | 4.05 µM | 2.86 µM | > 100 µM | 3.28 µM | 4.44 µM | 3.19 µM | > 20.4 µM | 1.66 µM | > 100 µM | –
3 | CO/C(=N\N=C\c1ccc(Cl)cc1Cl)c1ccncc1 | – | > 10 µM | > 10 µM | > 10 µM | – | > 10 µM | > 10 µM | > 10 µM | – | > 10 µM | > 10 µM
4 | N=S(=O)(c1ccccc1)c1ccccc1[N+](=O)[O-] (stereo not drawn) | – | > 100 µM | > 100 µM | > 100 µM | > 100 µM | – | > 100 µM | > 100 µM | – | > 100 µM | > 100 µM
5 | O=C1CCC2(CC1CCSc1ccccc1)OCCO2 (stereo not drawn) | > 100 µM | > 100 µM | > 100 µM | > 100 µM | > 100 µM | > 100 µM | – | > 100 µM | – | > 100 µM | > 100 µM
6 | COc1cc(/C=C2\N=C(c3ccccc3)N(/N=C3\C(=O)Nc4ccccc43)C2=O)cc(OC)c1OC | > 100 µM | > 100 µM | – | > 100 µM | > 100 µM | > 100 µM | > 100 µM | > 100 µM | – | > 100 µM | > 100 µM
7 | COC(=O)c1ccccc1C#CCCCOS(C)(=O)=O | > 10 µM | > 10 µM | > 10 µM | > 10 µM | > 10 µM | > 10 µM | > 10 µM | – | – | > 10 µM | > 10 µM
8 | C[C@H](CC[C@@H](O)C(C)(C)O)[C@H]1CC[C@@]2(C)[C@@H]3CC=C4[C@@H](CC[C@H](O)C4(C)C)[C@]3(C)C(=O)C[C@]12C | > 50 µM | – | 29.8 µM | > 50 µM | – | – | > 50 µM | > 50 µM | – | > 50 µM | > 50 µM
9 | O=c1[nH]c(=O)n(COCc2ccccc2)c2ccc(Br)cc12 | > 100 µM | > 100 µM | – | > 100 µM | > 100 µM | – | > 100 µM | – | – | > 100 µM | > 100 µM
10 | COc1cccc2c1C1(O)C2CCCC12OCCCO2 (stereo not drawn) | > 100 µM | > 100 µM | > 100 µM | > 100 µM | > 100 µM | – | > 100 µM | > 100 µM | – | > 100 µM | > 100 µM
11 | CC(=NCCN(CCN=C(C)c1c(O)cc(C)oc1=O)CCN=C(C)c1c(O)cc(C)oc1=O)c1c(O)cc(C)oc1=O | > 100 µM | – | > 100 µM | > 100 µM | – | > 100 µM | > 100 µM | > 100 µM | – | > 100 µM | > 100 µM
12 | C=C(CC(=O)Nc1ccc(C(=O)OC)o1)C(=O)OC | 44.6 µM | 33.3 µM | – | – | 72.4 µM | 54.8 µM | 45.2 µM | 38 µM | – | 47.8 µM | –
